{"source": "patent US9216955B2", "about": "“Polymorphic form of Fexofenadine hydrochloride, intermediates and process for its preparation” ([…] S.R.L., priority 2010, dated 2015)", "conditions": "solid form"}
{"smiles": "CC(C)(C(=O)O)c1ccc(C(O)CCCN2CCC(C(O)(c3ccccc3)c3ccccc3)CC2)cc1.Cl", "note": "(centres unmarked) [polymorph φ, 2-[4-[1-hydroxy-4-[4-(hydroxydiphenylmethyl)-1-piperidyl]-butyl]phenyl]-2-methylpropanoic acid]", "values": [{"measurement": "deliquescence", "value": "not deliquescent"}, {"measurement": "hygroscopicity", "value": "not hygroscopic"}]}
